Patent US6465433B1, “Boronic ester and acid compounds, synthesis and uses” (Millennium Pharmaceuticals, Inc., priority 1994, dated 2002)

Assays:
[1] = biological target: SDS-activated 20S proteasome from rabbit muscle (Oryctolagus cuniculus, UniProt G1SU71+G1T4Q9); assay: Kinetic assay: inhibition of the 20S proteasome; type: biochemical
Procedure: P, AA^1, AA^2, AA^3, and Z^1 and Z^2 represent the structures present on formula (1) or (2). The protocol for the kinetic assay described in Tables II-V is as described in Rock et al., Cell 78:761-771 (1994). In these tables, Ki values are reported, which are dissociation constants for the equilibrium that is established when enzyme and inhibitor interact to form the enzyme:inhibitor complex. The reactions were performed using SDS-activated 20S proteasome from rabbit muscle. The substrate used was Suc-LLVY-AMC.

C2C12 cells = assay: Inhibition of protein degradation in C2C12 cells; type: cell-based, mouse; conditions: 35S-methionine labelled cells, percent decrease in TCA soluble radioactivity, media with 50% serum
Procedure: One approach to testing drug candidates for their ability to inhibit the ATP-ubiquitin-dependent degradative process is to measure proteolysis in cultured cells (Rock, et al., Cell 78:761 (1994)). For example, the degradation of long-lived intracellular proteins can be measured in mouse C2C12 myoblast cells. Cells are incubated with ^35S-methionine for 48 hours to label long-lived proteins and then chased for 2 hours with medium containing unlabeled methionine. After the chase period, the cells are incubated for 4 hours in the presence or absence of the test compound. The amount of protein degradation in the cell can be measured by quantitating the trichloroacetic acid soluble radioactivity released from the pre-labeled proteins into the growth medium (an indicator of intracellular proteolysis).
C2C12 cells (a mouse myoblast line) were labelled for 48 hrs with ^35S-methionine. The cells were then washed and preincubated for 2 hrs in the same media supplemented with 2 mM unlabelled methionine. The media was removed and replaced with a fresh aliquot of the preincubation media containing 50% serum, and a concentration of the compound to be tested. The media was then removed and made up to 10% TCA and centrifuged. The TCA soluble radioactivity was counted. Inhibition of proteolysis was calculated as the percent decrease in TCA soluble radioactivity.

[2] = Table II, SDS-activated 20S proteasome from rabbit muscle, substrate Suc-LLVY-AMC

| Ki [1, 2] | Compound | further results |
| --- | --- | --- |
| – | CC(C)C[C@@H](C=O)NC(=O)[C@H](CC(C)C)NC(=O)OCc1ccccc1 [MG-105, reference compound] | Ki ([1]; Table III, dipeptide boronic acid vs dipeptide aldehyde): 15000 nM |
| 0.032 nM | CC(C)CC(NC(=O)C(CC(C)C)NC(=O)C(CC(C)C)NC(=O)OCc1ccccc1)B1OC2CC3CC(C3(C)C)C2(C)O1 (stereo not drawn) [MG-261] | – |
| 119 nM | CC(C)CC(NC(=O)C(CC(C)C)NC(=O)OCc1ccccc1)B1OC2CC3CC(C3(C)C)C2(C)O1 (stereo not drawn) [MG-264] | – |
| 0.083 nM | CC(C)C[C@H](NC(=O)[C@H](Cc1cccc2ccccc12)NC(=O)OCc1ccccc1)B(O)O [MG-270] | IC50 (C2C12 cells): 730 nM |
| 34 nM | CC(C)CC(NC(=O)C(Cc1ccc2ccccc2c1)NC(=O)OCc1ccccc1)B(O)O (stereo not drawn) [MG-272] | IC50 (C2C12 cells): 6000 nM |
| 0.14 nM | CC(C)C[C@H](NC(=O)[C@H](CC(C)C)NC(=O)[C@H](CC(C)C)NC(=O)N1CCOCC1)B(O)O [MG-278] | IC50 (C2C12 cells; Mus musculus, C2C12): 7500 nM |
| 25 nM | CC(C)C[C@H](NC(=O)[C@H](Cc1c[nH]cn1)NC(=O)OCc1ccccc1)B(O)O [MG-282] | IC50 (C2C12 cells): 64000 nM |
| 0.46 nM | CC(=O)N[C@@H](CC(C)C)C(=O)N[C@@H](CC(C)C)C(=O)N[C@@H](CC(C)C)B(O)O [MG-283] | IC50 (C2C12 cells; Mus musculus, C2C12): 3000 nM |
| 1200 nM | CO[C@](C(=O)N[C@@H](CC(C)C)B(O)O)(c1ccccc1)C(F)(F)F [MG-284] | – |
| 3 nM | CC(C)C[C@H](NC(=O)[C@H](Cc1c[nH]c2ccccc12)NC(=O)N1CCOCC1)B(O)O [MG-285] | IC50 (C2C12 cells): 2400 nM |
| 0.15 nM | CC(C)C[C@H](NC(=O)[C@H](Cc1cccc2ccccc12)NC(=O)N1CCOCC1)B1OCCNCCO1 [MG-286, Diethanolamine N-(4-Morpholine)carbonyl-β-(1-naphthyl)-L-alanine-L-leucine Boronate] | IC50 (C2C12 cells; Mus musculus, C2C12): 95 nM |
| 6.3 nM | CC(C)C[C@H](NC(=O)[C@H](Cc1cccnc1)NS(C)(=O)=O)B(O)O [MG-289] | IC50 (C2C12 cells): 10800 nM |
| 5.4 nM | CC(=O)N[C@@H](Cc1cccnc1)C(=O)N[C@@H](CC(C)C)B(O)O [MG-290] | IC50 (C2C12 cells): 10200 nM |
| 0.28 nM | CC(C)C[C@H](NC(=O)[C@H](Cc1cccc2ccccc12)NS(C)(=O)=O)B1OCCNCCO1 [MG-291] | – |
| 6 nM | CC(C)CC(NC(=O)C(Cc1ccc2ncccc2c1)NC(=O)N1CCOCC1)B(O)O [MG-292, N-(4-Morpholine)carbonyl-β-(6-quinolinyl)-D, L-alanine-L-leucine Boronic Acid] | IC50 (C2C12 cells; Mus musculus, C2C12): 11300 nM |
| 2300 nM | CC(C)CC(NC(=O)C(Cc1cccc2ccccc12)NC(=O)N1CCOCC1)B(O)O (stereo not drawn) [MG-293] | – |
| 152 nM | CC(C)C[C@H](NC(=O)[C@@H](N)Cc1cccnc1)B(O)O [MG-294] | – |
| 5.8 nM | CC(C)C[C@H](NC(=O)[C@H](Cc1c[nH]c2ccccc12)NS(C)(=O)=O)B(O)O [MG-295] | – |
| 0.075 nM | CC(C)C[C@H](NC(=O)[C@H](Cc1cccc2ccccc12)NC(=O)c1ccc2ccccc2n1)B(O)O [MG-298] | IC50 (C2C12 cells): 230 nM |
| 0.14 nM | CC(C)C[C@H](NC(=O)[C@H](Cc1cccc2ccccc12)NC(=O)c1cnc2ccccc2n1)B(O)O [MG-299] | IC50 (C2C12 cells): 280 nM |
| 1.3 nM | CC(C)C[C@H](NC(=O)[C@H](Cc1cccnc1)NC(=O)N1CCOCC1)B(O)O [MG-300] | – |
| 1.3 nM | CC(=O)N[C@@H](Cc1c[nH]c2ccccc12)C(=O)N[C@@H](CC(C)C)B(O)O [MG-301] | IC50 (C2C12 cells): 1300 nM |
| 0.23 nM | CC(C)C[C@H](NC(=O)[C@H](Cc1ccc(OCc2ccccc2)cc1)NC(=O)N1CCOCC1)B(O)O [MG-306, N-(4-Morpholine)carbonyl-(O-benzyl)-L-tyrosine-L-leucine Boronic Acid] | IC50 (C2C12 cells; Mus musculus, C2C12): 130 nM |
| 0.72 nM | CC(C)CC(NC(=O)C(Cc1ccc2ccccc2c1)NC(=O)N1CCOCC1)B(O)O (stereo not drawn) [MG-308] | IC50 (C2C12 cells): 96 nM |
| 6.3 nM | CC(C)C[C@H](NC(=O)[C@H](Cc1ccccn1)NC(=O)N1CCOCC1)B(O)O [MG-312] | IC50 (C2C12 cells): 1100 nM |
| – | CC(C)C[C@H](NC(=O)CCc1ccccc1)B(O)O [MG-313] | IC50 (C2C12 cells; Mus musculus, C2C12): 3500 nM |
| 0.19 nM | CC(C)C[C@H](NC(=O)[C@H](Cc1ccccc1)NC(=O)c1ccc2ccccc2n1)B(O)O [MG-314] | IC50 (C2C12 cells): 130 nM |

| Ki [1, 2] | Compound | further results |
| --- | --- | --- |
| 2.2 nM | CC(C)C[C@H](NC(=O)[C@H](Cc1ccc2ccccc2n1)NC(=O)N1CCOCC1)B(O)O [MG-315, N-(4-Morpholine)carbonyl-β-(2-quinolyl)-L-alanine-L-leucine Boronic Acid] | IC50 (C2C12 cells; Mus musculus, C2C12): 340 nM |
| 22 nM | CC(C)C[C@H](NC(=O)[C@@H]1Cc2ccccc2CN1)B(O)O [MG-316] | IC50 (C2C12 cells; Mus musculus, C2C12): 21000 nM |
| 99 nM | CB(O)[C@H](CC(C)C)NC(=O)[C@H](Cc1cccc2ccccc12)NC(=O)N1CCOCC1 [MG-317, N-(4-Morplioline)carbonyl-β-(1-naphtlyl)-L-alanine-L-leucine Methylboronic Acid] | – |
| 640 nM | CB(C)[C@H](CC(C)C)NC(=O)[C@H](Cc1cccc2ccccc12)NC(=O)N1CCOCC1 [MG-318, N-(4-Morpholine)carbonyl-β-(1-naphthyl)-L-alanine-L-leucine Dimethylborane] | – |
| 850 nM | CC(=O)N[C@@H](CC(C)C)B(O)O [MG-323] | – |
| 2 nM | CC(C)C[C@H](NC(=O)[C@@H](CC(=O)N1CCOCC1)Cc1cccc2ccccc12)B(O)O [MG-324, N-[3-(4-Morpholine)carbonyl-2(R)-(1-naphthyl)methyl]propionyl-L-leucine Boronic Acid] | – |
| 230 nM | CC(C)CC(NC(=O)C1NCCc2ccccc21)B(O)O (stereo not drawn) [MG-337] | – |
| 1.4 nM | CC(C)C[C@H](NC(=O)[C@H](Cc1ccccn1)NC(=O)c1ccc2ccccc2n1)B(O)O [MG-338] | – |
| 1600 nM | CC(C)CC(NC(=O)C1CCCNC1)B(O)O (stereo not drawn) [MG-339] | – |
| 9700 nM | CC(C)C[C@H](CC(=O)NCc1ccccc1)B(O)O [MG-342, N-Benzyl-(3R)-3-dioxyboryl-5-methylhexanamide] | – |
| 51 nM | CC(=O)N1Cc2[nH]c3ccccc3c2C[C@H]1C(=O)N[C@@H](CC(C)C)B(O)O [MG-344] | – |
| 21 nM | CC(C)C[C@H](NC(=O)[C@@H]1C[C@@H](O)CN1)B(O)O [MG-348] | – |
| 0.15 nM | CC(C)C[C@H](NC(=O)[C@H](Cc1ccccc1)NC(=O)c1ccccc1)B(O)O [MG-353] | – |
| 28 nM | CC(C)C[C@H](NC(=O)C[C@H](O)[C@H](Cc1cccc2ccccc12)NS(=O)(=O)c1cccc2cccnc12)B(O)O [MG-354] | – |
| 0.13 nM | CC(C)C[C@H](NC(=O)[C@H](Cc1ccccc1)NC(=O)OCc1ccccc1)B(O)O [MG-356] | – |
| 23 nM | CC(C)CC(NC(=O)C1CCCCN1)B(O)O (stereo not drawn) [MG-357] | – |
| 0.17 nM | CC(C)C[C@H](NC(=O)[C@H](Cc1ccccc1)NC(=O)c1ccoc1)B(O)O [MG-358] | – |
| 0.14 nM | CC(C)C[C@H](NC(=O)[C@H](Cc1ccccc1)NC(=O)c1cc[nH]c1)B(O)O [MG-361] | – |
| 6400 nM | CC(C)C[C@H](NC(=O)NCc1ccccc1)B(O)O [MG-362] | – |
| 45.2 nM | CC(C)C[C@H](NC(=O)[C@@H]1CCCCN1)B(O)O [MG-366] | – |
| 5.6 nM | CC(C)C[C@H](NC(=O)[C@H](Cc1ccccn1)NC(=O)c1cnccn1)B(O)O [MG-368] | – |
| 24.2 nM | CC(C)C[C@H](NC(=O)[C@@H]1CCN1)B(O)O [MG-369] | – |
| 4.4 nM | CC(C)C[C@H](NC(=O)[C@H](Cc1ccccc1)NS(=O)(=O)c1cccc2cccnc12)B(O)O [MG-380] | – |
| 0.95 nM | CC(C)C[C@H](NC(=O)[C@H](Cc1ccc(F)cc1)NC(=O)c1cnccn1)B(O)O [MG-382] | – |
| 0.84 nM | CC(C)C[C@@H](NC(=O)[C@H](Cc1ccc(F)cc1)NC(=O)c1ccccn1)B(O)O [MG-383] | – |
| 23 nM | CC(C)C[C@H](NC(=O)[C@@H]1C[C@@H](OCc2ccc3ccccc3n2)CN1)B(O)O [MG-385] | – |
| 92 nM | CC(C)CC(NC(=O)C1CC2CCCCC2N1)B(O)O (stereo not drawn) [MG-386] | – |

| Compound | Ki [1, 2] | further results |
| --- | --- | --- |
| CC(C)C[C@H](NC(=O)[C@H](Cc1ccc(O)cc1)NC(=O)N1CCOCC1)B(O)O [MG-307, N-(4-morpholine)carbonyl-L-tyrosine-L-leucine boronic acid] | 0.51 nM | IC50 (C2C12 cells): 4800 nM |
| CC(=O)N1Cc2ccccc2CC1C(=O)N[C@@H](CC(C)C)B(O)O (stereo partly drawn) [MG-310, N-Acetyl-1,2,3,4-tetrahydro-3-isoquinolinecarbonyl-L-leucine Boronic Acid] | 90 nM | – |
| N-(3-phenylpropionyl)-L-phenylalanine-L-leucine boronic acid [MG-352] | 0.15 nM | – |
| N-Methyl-N-Cbz-L-leucine-L-leucine Boronic Acid [MG-268] | 998 nM | – |
| cis-3-Phenyl-D,L-proline-L-leucine Boronic Acid Hydrochloride Salt [MG-359] | 5.5 nM | – |
| trans-3-Phenyl-D,L-proline-L-leucine Boronic Acid Hydrochloride Salt [MG-363] | 3.45 nM | – |
| trans-4-Phenoxy-L-proline-L-leucine Boronic Acid [MG-349] | 18 nM | – |
